Data: BindingDB's records for doi:10.1021/jm800200u (Mgi Pharma, 2008)

Target: D-amino-acid oxidase (Sus scrofa, UniProt P00371)
Test: In vitro D-Amino Acid Oxidase Assay
Details: pH 8.5; 22 °C
Experimental: D-amino acid oxidase (DAAO) was assayed in a 96-well plate format. D-serine was oxidatively deaminated by porcine D-amino acid oxidase in the presence of molecular oxygen and flavin […] dinucleotide (FAD) to yield the corresponding alpha-keto acid, ammonia and hydrogen peroxide.

Chain of D-amino-acid oxidase (P00371 whole entry): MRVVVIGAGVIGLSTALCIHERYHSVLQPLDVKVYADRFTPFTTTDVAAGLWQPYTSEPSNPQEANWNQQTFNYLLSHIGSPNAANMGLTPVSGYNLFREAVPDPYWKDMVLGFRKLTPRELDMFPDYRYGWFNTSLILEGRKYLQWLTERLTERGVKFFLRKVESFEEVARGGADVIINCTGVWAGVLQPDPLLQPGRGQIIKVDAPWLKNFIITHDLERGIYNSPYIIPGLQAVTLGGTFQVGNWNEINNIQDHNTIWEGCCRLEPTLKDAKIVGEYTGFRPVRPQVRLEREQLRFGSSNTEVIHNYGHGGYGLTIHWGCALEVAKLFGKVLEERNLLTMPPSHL

## O=c1[nH]oc2c1CCCC2 [4,5,6,7-tetrahydrobenzo[d]isoxazol-3-ol]
  IC50: > 100 µM
